Columns and labels:
[1] = Analysis and comparison of properties: moisture; assay type: physicochemical; conditions: solid forms prepared from crude ergothioneine
Procedure: (§1) X-ray diffraction (XRD), differential scanning calorimetry (DSC), elemental analysis, particle size analysis, quantitative nuclear magnetic resonance (NMR), Raman spectroscopy, infrared spectroscopy (IR), TGA, IPC-MS, DVS and other tests were carried out on the crystal forms prepared in the Examples.
(§2) Using crude ergothioneine as raw material, three crystal forms A, B and C were prepared respectively, and their properties were compared with those of amorphous ergothioneine.

[2] = Analysis and comparison of properties: hygroscopicity; assay type: physicochemical; conditions: solid forms prepared from crude ergothioneine
Procedure: as §1, §2

[3] = listed as amorphous ergothioneine

SMILES: C[N+](C)(C)[C@@H](Cc1c[nH]c(=S)[nH]1)C(=O)[O-] [Crystal form B, ergothioneine]
- Moisture (%) [1]: 0.10%
- Hygroscopicity [2]: Stable

SMILES: C[N+](C)(C)[C@@H](Cc1c[nH]c(=S)[nH]1)C(=O)[O-] [Crystal form C, ergothioneine]
- Moisture (%) [1]: 0.09%
- Hygroscopicity [2]: Stable

SMILES: C[N+](C)(C)[C@@H](Cc1c[nH]c(=S)[nH]1)C(=O)[O-] [Crystal form A, ergothioneine]
- Moisture (%) [1]: 0.07%
- Hygroscopicity [2]: Stable

SMILES: C[N+](C)(C)[C@@H](Cc1c[nH]c(=S)[nH]1)C(=O)[O-] [Amorphous, ergothioneine]
- Moisture (%) [1]: 1.29%
- Moisture (%) [1, 3]: 1.29%
- Hygroscopicity [2]: Easily
- Hygroscopicity [2, 3]: strong hygroscopicity
